In patent publication US20240173422A1, “BICYCLIC PEPTIDE LIGAND DRUG CONJUGATES” (BICYCLETX LIMITED, priority 2019, published 2024):
Each block holds one substance with its values, some of them ahead of it. Numbered stars: 1 amine (or outer) side, 2 acyl side, 3 side chain; on linkers, the order of the positions; unused ones are H or OH. Bridge positions count the residues as written; N and C are the ends. Square brackets hold non-standard residues; d marks the D form. I, II: the chains in the order shown. * marks the point of attachment. X2 = O=C(CCOCCOCCOCCOCCOCCOCCOCCOCCOCCOCCC(=O)[*:2])[*:1]; TATA = O=C(CC[*:1])N1CN(C(=O)CC[*:2])CN(C(=O)CC[*:3])C1; Dolaproine = CO[C@@H]([C@@H]1CCCN1)[C@@H](C)C(=O)O; Dil = CC[C@H](C)[C@H](NC)[C@@H](CC(=O)O)OC; 1Nal = N[C@@H](Cc1cccc2ccccc12)C(=O)O; X3 = O=C(CCCC(=O)[*:2])NCCC(=O)[*:1]; PABC = O=C(OCc1ccc(N[*:1])cc1)[*:2]; X1 = C[C@@H](N*)[C@@H](O)c1ccccc1; Hyp = O=C(O)[C@@H]1C[C@@H](O)CN1; Cit = NC(=O)NCCC[C@H](N)C(=O)O; NMeV = CN[C@H](C(=O)O)C(C)C; Sar = CNCC(=O)O

Assays:
[1] = target: Human Nectin-4 (residues Gly32-Ser349; NCBI RefSeq: NP_112178.2) with C-terminal FLAG tag, biotinylated (human) (UniProt Q96NY8); assay: SPR (Biacore 3000), biotinylated Nectin-4 captured on streptavidin CM5 chip, peptide as analyte
[2] = target: Human Nectin-4 (residues Gly32-Ser349; NCBI RefSeq: NP_112178.2) with C-terminal FLAG tag, biotinylated (human) (UniProt Q96NY8); assay: SPR binding assay, against BCY8126 as reference
NCI-H292 xenograft = assay: In vivo efficacy study in NCI-H292 xenograft in Balb/c nude mice; set-up: species or system Balb/c nude mice (Mus Musculus); details: 3 mpk, iv
Excerpt: In Vivo Efficacy Study of BCY8244 in Treatment of NCI-H292 Xenograft in Balb/c Nude Mice
The objective of the research is to evaluate the in vivo anti-tumor efficacy of BCY8244 in treatment of NCI-H292 xenograft in Balb/c nude mice.
• Species: Mus Musculus • Strain: Balb/c nude • Age: 6-8 weeks • Sex: female • Body weight: 18-22 g • Number of animals: 43 mice plus spare • Animal supplier: Shanghai Lingchang Biotechnology Experimental Animal Co. Ltd
The NCI-H292 tumor cells were maintained in vitro as a monolayer culture in RPMI-1640 medium supplemented with 10% heat inactivated fetal bovine serum at 37° C. in an atmosphere of 5% CO2 in air. The tumor cells were routinely subcultured twice weekly by trypsin-EDTA treatment. The cells growing in an exponential growth phase were harvested and counted for tumor inoculation.
Each mouse was inoculated subcutaneously at the right flank with NCI-H292 tumor cells (10×10^6) in 0.2 ml of PBS for tumor development. 43 animals were randomized when the average tumor volume reached 168 mm^3. The test article administration and the animal numbers in each group were shown in the experimental design table.
The major endpoint was to see if the tumor growth could be delayed or mice could be cured. Tumor volume was measured three times weekly in two dimensions using a caliper, and the volume was expressed in mm^3 using the formula: V=0.5 a×b^2 where a and b are the long and short diameters of the tumor, respectively. The tumor size was then used for calculations of T/C value. The T/C value (in percent) is an indication of antitumor effectiveness; T and C are the mean volumes of the treated and control groups, respectively, on a given day. TGI was calculated for each group using the formula: TGI (%)=[1−(Ti−T0)/(Vi−V0)]×100; Ti is the average tumor volume of a treatment group on a given day, T0 is the average tumor volume of the treatment group on the day of treatment start, Vi is the average tumor volume of the vehicle control group on the same day with Ti and V0 is the average tumor volume of the vehicle group on the day of treatment start.
Summary statistics, including mean and the standard error of the mean (SEM), were provided for the tumor volume of each group at each time point.
Statistical analysis of difference in tumor volume among the groups was conducted on the data obtained at the best therapeutic time point after the final dose.
A t-test was performed to compare tumor volume among groups, […]. All data were analyzed using GraphPad Prism 5.0. P<0.05 was considered to be statistically significant.
Tumor growth inhibition rate for test articles in the NCI-H292 xenograft model was calculated based on tumor volume measurements at day 14 after the start of treatment.

[3] = Body weight monitoring in the NCI-H292 xenograft study; type: in vivo, Balb/c nude mice (Mus Musculus); details: 3 mpk, iv, qw
Procedure: All the procedures related to animal handling, care and the treatment in the study were performed according to the guidelines approved by the Institutional Animal Care and Use Committee (IACUC) of WuXi AppTec, following the guidance of the Association for Assessment and Accreditation of Laboratory Animal Care (AAALAC). At the time of routine monitoring, the animals were checked for any effects of tumor growth and treatments on normal behavior such as mobility, food and water consumption (by looking only), body weight gain/loss, eye/hair matting and any other abnormal effect as stated in the protocol. Death and observed clinical signs were recorded on the basis of the numbers of animals within each subset.

human Nectin-4 = target: T1, human Nectin-4 (Homo sapiens, UniProt Q96NY8); assay: Nectin-4 Biacore SPR binding assay
T1 sequence (Q96NY8 32-349): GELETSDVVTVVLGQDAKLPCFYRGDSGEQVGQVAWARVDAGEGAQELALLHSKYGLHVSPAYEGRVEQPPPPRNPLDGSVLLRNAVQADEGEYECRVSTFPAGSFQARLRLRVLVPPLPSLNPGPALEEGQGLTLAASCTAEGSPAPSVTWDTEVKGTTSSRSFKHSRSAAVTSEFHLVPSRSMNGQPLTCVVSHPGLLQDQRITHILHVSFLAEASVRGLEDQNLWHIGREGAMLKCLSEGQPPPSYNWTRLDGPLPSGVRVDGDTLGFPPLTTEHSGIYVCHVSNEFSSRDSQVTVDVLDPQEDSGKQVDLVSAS

Kd [1]: 1.46 nM
koff [1]: 0.000969 s⁻¹
kon [1]: 662000 M⁻¹ s⁻¹
Substance: BCY8126 (Nectin-4 monomer) (peptide)

fold greater binding activity than BCY8126 [2]: 3.5 fold
koff [1]: 0.000319 s⁻¹
Substance: BCY8244 (Nectin-4 homo-tandem), BDC of formula (A) (peptide)

Substance: I: [Sar][Sar][Sar][Sar][Sar][Sar][Sar][Sar][Sar][Sar]CP[1Nal][dD]CMKDWSTP[Hyp]WC-NH2 / II: [Sar][Sar][Sar][Sar][Sar][Sar][Sar][Sar][Sar][Sar]CP[1Nal][dD]CMKDWSTP[Hyp]WC-NH2 / III: V[Cit][PABC][NMeV]V[Dil][Dolaproine]-X1 / IV: V[Cit][PABC][NMeV]V[Dil][Dolaproine]-X1 (linker I:11-I:15-I:25, II:11-II:15-II:25 via TATA; linker I:17-II:17 via X2; linker I:N-III:N, II:N-IV:N via X3; C-terminus assumed) [BCY8244]
tumor inhibitory effect (NCI-H292 xenograft; NCI-H292 xenograft, qw, 3 mg/kg): excellent levels of tumor inhibitory effect and regressed the tumors potently
Tumor volume (mean ± SEM) (NCI-H292 xenograft; day 0 after the start of treatment, qw): 168 ± 20 mm^3
Tumor volume (mean ± SEM) (NCI-H292 xenograft; day 2 after the start of treatment, qw): 187 ± 20 mm^3
Tumor volume (mean ± SEM) (NCI-H292 xenograft; day 4 after the start of treatment, qw): 180 ± 48 mm^3
Tumor volume (mean ± SEM) (NCI-H292 xenograft; day 7 after the start of treatment, qw): 155 ± 33 mm^3
Tumor volume (mean ± SEM) (NCI-H292 xenograft; day 9 after the start of treatment, qw): 141 ± 29 mm^3
Tumor volume (mean ± SEM) (NCI-H292 xenograft; day 11 after the start of treatment, qw): 96 ± 23 mm^3
TGI (NCI-H292 xenograft; day 14, qw): 109.0%
Tumor volume (mean ± SEM) (NCI-H292 xenograft; day 14, qw (Table 5)): 108 ± 15 mm^3
T/C (NCI-H292 xenograft; day 14, qw, treated/control mean tumor volume): 12.8%
Tumor volume (mean ± SEM) (NCI-H292 xenograft; day 14 after the start of treatment, qw (Table 4)): 108 ± 15 mm^3
body weight [3]: maintained the bodyweight well
Kd (human Nectin-4): 0.425 nM
binding in the SPR binding assay (human Nectin-4): good levels of binding
kd (human Nectin-4; Biacore SPR, biotinylated human Nectin-4, 25° C.): 0.000319 s⁻¹
fold greater binding activity in the SPR binding assay than monomeric BCY8126 (human Nectin-4; homo-tandem versus monomer): 3.5 fold
kon (human Nectin-4; read-out: ka): 750000 M⁻¹ s⁻¹
